Data from the NIST ThermoML archive (doi:10.1016/j.fluid.2018.09.023).
± gives the expanded uncertainty stated by the source.

Assay: not given
Details: 298.15 K; 101.33 kPa; Liquid; Vibrating tube method

Row | mass density | SMILES
1 | 785.02 ± 0.13 kg/m3 | CCO [ethanol]
2 | 780.79 ± 0.13 kg/m3 | CC(C)O [propan-2-ol]
3 | 800.06 ± 0.12 kg/m3 | CCCO [propan-1-ol]

Continued, compound first:

Row | SMILES | mass density
4 | COC(=O)OC [dimethyl carbonate] | 1063.26 ± 0.08 kg/m3
5 | CCCOC(=O)OCCC [dipropyl carbonate] | 938.35 ± 0.13 kg/m3
6 | CCOC(=O)OCC [diethyl carbonate] | 969.18 ± 0.07 kg/m3

Assay: Solid-liquid equilibrium temperature
Details: 101 kPa, visual observation

Row | Solid-liquid equilibrium temperature | SMILES
7 | 278.11 ± 4 K | COC(=O)OC [dimethyl carbonate]
8 | 352.7 ± 4 K | O=C(Oc1ccccc1)Oc1ccccc1 [diphenyl carbonate]
